Data set [1] has as its system Calu6 xenografts. The data set can be described thus: Calu6 xenograft growth delay, combination with gemcitabine. Format: in vivo, mouse. The settings on record: Calu6 xenografts; CCT244747 75mg/kg p.o. or gemcitabine 100mg/kg i.v. alone.
Data set [2] relates to HT29 xenografts. Kind of data set: HT29 xenograft growth delay, combination with gemcitabine. Format: in vivo, mouse. The settings on record: gemcitabine alone 100mg/kg i.v. days 0, 7, 14.
Data set [3] deals with HT29 tumors. The data set can be described thus: HT29 xenograft growth delay, combination with irinotecan. Particulars: HT29 tumors; irinotecan alone 25mg/kg i.p. days 0, 4, 8. The format is in vivo, mouse.
The test system of data set [4] is SW620 cells. Kind of data set: Contact time / scheduling study with gemcitabine in SW620.
For data set [5], the system named is HT29 colon carcinoma cells. The data set can be described thus: Cell cycle analysis. Format: cell-based, human. Particulars: etoposide 25μM × 1h, measured at 24h.

Structures are written as SMILES.

4 compounds from paper PMC3474704 (Clinical cancer research : an official journal of the …, 2012) can be followed below.

With `Nc1ccn([C@@H]2O[C@H](CO)[C@@H](O)C2(F)F)c(=O)n1` [gemcitabine, reference compound], the “antitumor activity of each agent alone” value in data set [1] is given as “minimal activity”. For the same compound, the growth delay in data set [2] was 2.3 days.

Regarding `CCc1c2c(nc3ccc(OC(=O)N4CCC(N5CCCCC5)CC4)cc13)-c1cc3c(c(=O)n1C2)COC(=O)[C@]3(O)CC` [irinotecan, reference compound], in data set [3], the growth delay was determined as 6.9 days.

As for `C[C@H](CN(C)C)Oc1nc(Nc2cc3cccc(Cl)c3cn2)cnc1C#N` [SAR-020106], the “enhancement of gemcitabine activity” value in data set [4] (exposures <24h) is on record as “minimal enhancement”. For the same compound, the “continuous exposure giving maximum potentiation of gemcitabine cytotoxicity” value in data set [4] (gemcitabine) is at least 48 h.

`COc1cc([C@@H]2c3cc4c(cc3[C@@H](O[C@@H]3O[C@@H]5CO[C@@H](C)O[C@H]5[C@H](O)[C@H]3O)[C@H]3COC(=O)[C@H]23)OCO4)cc(OC)c1O` [etoposide, reference compound]: the “cells in G2/M” value in data set [5] turned out to be 70.5%.
